Assay results reported in patent US20250144067A1, “PERSONALIZED STARVATION THERAPY FOR CANCER” (Faeth Therapeutics, Inc., priority 2021, published 2025).
Where a name gives a salt, the structure may show the parent alone. Read-outs that look alike come from different tables or passages of the source.

Experiments:
[1] = test system: NCI-H292 lung cancer cells; experiment: FDA drug screening, complete media vs cholesterol-free media with simvastatin (TABLE 2); type: cell-based, human
[2] = test system: NCI-H292 lung cancer cells; experiment: FDA drug screening, complete media vs cholesterol-free media without statin (TABLE 1); type: cell-based, human
[3] = NCI-H292 cells, cholesterol-free media with simvastatin 0.04 μM, cell growth value in FDA drug screen
[4] = NCI-H292 cells, complete media, cell growth value in FDA drug screen
[5] = complete media minus cholesterol-free media + simvastatin, >0 enhanced anti-cancer activity, about 0 neutral, <0 antagonist
[6] = Complete minus Cholesterol-free, greater than 0 enhanced anti-cancer activity, about 0 neutral, below 0 antagonists
[7] = NCI-H292 cells in cholesterol-free media without statin
[8] = NCI-H292 cells in complete media
[9] = NCI-H292 cells, FDA drug library screen, cholesterol-free media with simvastatin 0.04 μM
[10] = NCI-H292 cells, FDA drug library screen, complete media
[11] = complete media vs cholesterol-free media + simvastatin (0.04 μM), >0 enhanced anti-cancer activity, about 0 neutral, <0 antagonist
[12] = NCI-H292 cells, cholesterol-free media without statin
[13] = complete vs cholesterol-free media, greater than 0 enhanced anti-cancer activity, about 0 neutral, below 0 antagonists
[14] = Complete minus Cholesterol-free, greater than 0 enhanced anti-cancer activity, about 0 neutral, below 0 antagonist
[15] = NCI-H292 cells, FDA drug library screen, cholesterol-free media without statin
[16] = Complete minus Cholesterol-free, >0 enhanced anti-cancer activity, about 0 neutral, <0 antagonist
[17] = NCI-H292 cells, cholesterol-free media without statin, FDA drug library screen
[18] = NCI-H292 cells, complete media, FDA drug library screen
[19] = NCI-H292 cells, cholesterol-free media with simvastatin 0.04 μM, FDA drug library screen (TABLE 2)
[20] = NCI-H292 cells, complete media, FDA drug library screen (TABLE 2)
[21] = complete media minus cholesterol-free media + simvastatin (0.04 μM), >0 enhanced anti-cancer activity, about 0 neutral, <0 antagonist
[22] = NCI-H292 cells, FDA library drug in cholesterol-free media with simvastatin 0.04 μM
[23] = NCI-H292 cells, FDA library drug in complete media
[24] = complete media vs cholesterol-free media + simvastatin (0.04 μM), […]
[25] = Complete minus Cholesterol-free, […]

O=C(c1ccc(F)cc1)C1CCN(CCn2c(=O)[nH]c3ccccc3c2=O)CC1 [Ketanserin]
Cholesterol-free media + simvastatin (0.04 μM) [1, 3]: 1.439
Complete Media [1, 4]: 1.462
Difference [1, 5]: 0.02
Difference [2, 6]: −0.47
Cholesterol-free [2, 7]: 1.183
Complete [2, 8]: 0.7093

CC(C)NCC(O)c1ccc(NS(C)(=O)=O)cc1 (stereo not drawn) [Sotalol (hydrochloride)]
Cholesterol-free media + simvastatin (0.04 μM) [1, 9]: 0.8339
Complete Media [1, 10]: 0.7583
Difference [1, 11]: −0.08
Cholesterol-free [2, 12]: 1.39
Complete ([2]; NCI-H292 cells, complete media): 0.9629
Difference [2, 13]: −0.43

Levamlodipine besylate
Cholesterol-free media + simvastatin (0.04 μM) [1]: 1.066
Complete Media [1]: 0.9372
Difference [1]: −0.13
Cholesterol-free [2]: 1.261
Difference [2]: −0.22

CC(C)[N+](C)(CCC(C(N)=O)(c1ccccc1)c1ccccc1)C(C)C.[I-] [Isopropamide (iodide)]
Cholesterol-free media + simvastatin (0.04 μM) [1, 3]: 0.9908
Complete Media [1, 4]: 1.047
Difference [1, 5]: 0.06
Cholesterol-free [2, 12]: 1.319
Complete ([2]; NCI-H292 cells, complete media): 0.9185
Difference [2, 13]: −0.40

Toceranib (phosphate)
Cholesterol-free media + simvastatin (0.04 μM) [1, 9]: 0.9001
Difference [1, 5]: 0.14
Cholesterol-free [2, 12]: 1.278
Complete ([2]; NCI-H292 cells, complete media): 0.9469
Difference [2, 13]: −0.33

OC[C@H]1O[C@@H](O[C@@H]2[C@@H](CO)OC(O)(CO)[C@H]2O)[C@H](O)[C@@H](O)[C@H]1O (mixture of isomers) [Lactulose]
Cholesterol-free media + simvastatin (0.04 μM) [1, 3]: 0.7227
Complete Media [1, 4]: 0.8015
Difference [1, 5]: 0.08
Difference [2, 14]: −0.16
Cholesterol-free [2, 15]: 1.109
Complete [2, 10]: 0.9456

Gadobutrol
Cholesterol-free media + simvastatin (0.04 μM) ([1]; NCI-H292 cells, drug in cholesterol-free media with simvastatin 0.04 μM): 1.273
Complete Media ([1]; NCI-H292 cells, drug in complete media): 1.022
Difference [1, 11]: −0.25
Difference [2, 16]: 0.01
Cholesterol-free [2, 17]: 0.939
Complete [2, 18]: 0.9511

Pazufloxacin (mesylate)
Cholesterol-free media + simvastatin (0.04 μM) [1, 19]: 0.9357
Complete Media [1, 20]: 0.9248
Difference [1, 21]: −0.01
Difference [2, 16]: −0.28
Cholesterol-free [2, 12]: 0.9858
Complete ([2]; NCI-H292 cells, complete media): 0.7051

COc1cc(NS(=O)(=O)c2ccc(N)cc2)nc(OC)n1 [Sulfadimethoxine (sodium)]
Cholesterol-free media + simvastatin (0.04 μM) [1, 22]: 1.876
Complete Media [1, 23]: 1.521
Difference [1, 11]: −0.35
Difference [2, 16]: −0.30
Cholesterol-free [2, 12]: 1.031
Complete ([2]; NCI-H292 cells, complete media): 0.7288

O=c1ccc2ccc(OCCCCN3CCN(c4cccc5sccc45)CC3)cc2[nH]1 [Brexpiprazole]
Cholesterol-free media + simvastatin (0.04 μM) [1, 3]: 0.8945
Complete Media [1, 4]: 1.024
Difference [1, 5]: 0.13
Cholesterol-free [2, 12]: 0.9917
Complete ([2]; NCI-H292 cells, complete media): 0.6405
Difference [2, 13]: −0.35

CCOc1nc2cccc(C(=O)O)c2n1Cc1ccc(-c2ccccc2-c2nc(=O)o[nH]2)cc1 [Azilsartan]
Cholesterol-free media + simvastatin (0.04 μM) [1, 9]: 1.196
Complete Media [1, 10]: 1.042
Difference [1, 11]: −0.15
Cholesterol-free [2, 12]: 1.417
Complete ([2]; NCI-H292 cells, complete media): 1.021
Difference [2, 13]: −0.40

C[S+](C)CCC(N)C(=O)O.[Cl-] (racemic) [DL-Methionine methylsulfonium (chloride)]
Cholesterol-free media + simvastatin (0.04 μM) [1, 22]: 1.182
Complete Media [1, 23]: 0.8884
Difference [1, 11]: −0.29
Difference [2, 14]: −0.16
Cholesterol-free [2, 15]: 1.102
Complete [2, 10]: 0.9454

CCCCCCCCCCCCCCCC[N+](C)(C)CCN(Cc1ccc(OC)cc1)c1ncccn1.[Br-] [Thonzonium (bromide)]
Cholesterol-free media + simvastatin (0.04 μM) [1, 9]: 0.2494
Complete Media [1, 10]: 0.5638
Difference [1, 5]: 0.31
Difference [2, 14]: −0.13
Cholesterol-free [2, 15]: 0.179
Complete [2, 10]: 0.05155

Nc1ccn([C@@H]2O[C@H](CO)[C@@H](O)C2(F)F)c(=O)n1 [Gemcitabine]
Cholesterol-free media + simvastatin (0.04 μM) [1, 19]: 0.08143
Complete Media [1, 20]: 0.09095
Difference [1, 21]: 0.01
Difference [2, 16]: −0.03
Cholesterol-free [2, 17]: 0.04572
Complete [2, 18]: 0.01326

Clc1ccc(Cn2c(CN3CCCC3)nc3ccccc32)cc1 [Clemizole (hydrochloride)]
Cholesterol-free media + simvastatin (0.04 μM) [1, 3]: 0.9553
Complete Media [1, 4]: 1.07
Difference [1, 5]: 0.11
Difference [2, 14]: −0.11
Cholesterol-free [2, 15]: 1.125
Complete [2, 10]: 1.013

CC(C)(C)c1cc(-c2cc(-c3ccc(C(=O)O)cc3)ccc2OCCO)ccc1N1CCCC1 [Trifarotene]
Cholesterol-free media + simvastatin (0.04 μM) [1, 9]: 0.9343
Complete Media [1, 10]: 0.8355
Difference [1, 11]: −0.10
Cholesterol-free [2, 12]: 1.099
Complete ([2]; NCI-H292 cells, complete media): 0.7867
Difference [2, 13]: −0.31

CN(C)CCc1c[nH]c2ccc(Cn3cncn3)cc12.O=C(O)c1ccccc1 [Rizatriptan (benzoate)]
Cholesterol-free media + simvastatin (0.04 μM) [1, 9]: 1.054
Complete Media [1, 10]: 0.9799
Difference [1, 24]: −0.07
Difference [2, 25]: 0.02
Cholesterol-free [2, 17]: 0.4266
Complete [2, 18]: 0.447

Cc1oc(=O)oc1CN1CCN(c2cc3c(cc2F)c(=O)c(C(=O)O)c2n3C(C)S2)CC1 (stereo not drawn) [Prulifloxacin]
Cholesterol-free media + simvastatin (0.04 μM) [1, 9]: 0.966
Difference [1, 5]: 0.21
Cholesterol-free [2, 17]: 1.111
Complete [2, 18]: 1.213
Difference ([2]; complete vs cholesterol-free media, >0 enhanced anti-cancer activity, about 0 neutral, <0 antagonist): 0.10

CO/N=C(\C(=O)N[C@@H]1C(=O)N2C(C(=O)O)=C(CSc3nnnn3C)CS[C@H]12)c1csc(N)n1 [Cefmenoxime (hydrochloride)]
Cholesterol-free media + simvastatin (0.04 μM) [1, 9]: 0.8027
Complete Media [1, 10]: 0.7093
Difference [1, 11]: −0.09
Difference [2, 16]: −0.30
Cholesterol-free [2, 12]: 1.225
Complete ([2]; NCI-H292 cells, complete media): 0.93

CCCN[C@H]1CCc2nc(N)sc2C1 [Pramipexole]
Cholesterol-free media + simvastatin (0.04 μM) [1, 19]: 1.074
Complete Media [1, 20]: 1.035
Difference [1, 21]: −0.04
Difference [2, 6]: −0.68
Cholesterol-free [2, 7]: 1.519
Complete [2, 8]: 0.8353

Cc1ccc([C@@H]2O[C@H](CO)[C@@H](O)[C@H](O)[C@H]2O)cc1Cc1ccc(-c2ccc(F)cc2)s1 [Canagliflozin]
Cholesterol-free media + simvastatin (0.04 μM) [1, 19]: 1.109
Complete Media [1, 20]: 1.104
Difference ([1]; complete media minus cholesterol-free media + simvastatin (0.04 μM), […]): −0.01
Cholesterol-free [2, 12]: 1.159
Complete ([2]; NCI-H292 cells, complete media): 0.8206
Difference ([2]; complete vs cholesterol-free media, […]): −0.34

OCCOCCN1CCN(C2=Nc3ccccc3Sc3ccccc32)CC1 [Quetiapine]
Cholesterol-free media + simvastatin (0.04 μM) [1, 3]: 0.8037
Complete Media [1, 4]: 0.9281
Difference [1, 5]: 0.12
Difference [2, 14]: −0.09
Cholesterol-free [2, 15]: 0.8483
Complete [2, 10]: 0.7581

O=C(O)/C=C/C(=O)O [Fumaric acid]
Cholesterol-free media + simvastatin (0.04 μM) [1, 22]: 1.117
Complete Media [1, 23]: 0.8401
Difference [1, 11]: −0.28
Cholesterol-free [2, 12]: 1.029
Complete ([2]; NCI-H292 cells, complete media): 0.6691
Difference [2, 13]: −0.36

COc1ccc2cccc(CCNC(C)=O)c2c1 [Agomelatine (hydrochloride)]
Cholesterol-free media + simvastatin (0.04 μM) [1, 22]: 1.126
Complete Media [1, 23]: 0.7656
Difference [1, 11]: −0.36
Difference [2, 16]: 0.00
Cholesterol-free [2, 17]: 0.7477
Complete [2, 18]: 0.7483

Quetiapine (hemifumarate)
Cholesterol-free media + simvastatin (0.04 μM) [1, 9]: 0.6141
Complete Media [1, 10]: 0.8428
Difference [1, 5]: 0.23
Difference [2, 16]: −0.22
Cholesterol-free [2, 12]: 0.9339
Complete ([2]; NCI-H292 cells, complete media): 0.7112

C1N2CN3CN1CN(C2)C3.O=C(O)CNC(=O)c1ccccc1 [Methenamine (hippurate)]
Cholesterol-free media + simvastatin (0.04 μM) [1, 19]: 0.3855
Complete Media [1, 20]: 0.3286
Difference [1, 21]: −0.06
Difference [2, 16]: 0.05
Cholesterol-free [2, 17]: 0.09528
Complete [2, 18]: 0.1431

CCCCC(=O)OCC(=O)[C@]1(O)Cc2c(O)c3c(c(O)c2[C@@H](O[C@H]2C[C@H](NC(=O)C(F)(F)F)[C@H](O)[C@H](C)O2)C1)C(=O)c1c(OC)cccc1C3=O [Valrubicin]
Cholesterol-free media + simvastatin (0.04 μM) [1, 3]: 0.07499
Complete Media [1, 4]: 0.1845
Difference [1, 5]: 0.11
Difference [2, 16]: 0.02
Cholesterol-free [2, 17]: 0.04622
Complete [2, 18]: 0.06624

O=C1NCN(c2ccccc2)C12CCN(CCCC(c1ccc(F)cc1)c1ccc(F)cc1)CC2 [Fluspirilene]
Cholesterol-free media + simvastatin (0.04 μM) [1, 19]: 1.267
Complete Media [1, 20]: 1.241
Difference [1, 21]: −0.03
Cholesterol-free [2, 12]: 1.319
Complete ([2]; NCI-H292 cells, complete media): 0.9067
Difference [2, 13]: −0.41

Cc1ccc([C@@H]2O[C@H](CO)[C@@H](O)[C@H](O)[C@H]2O)cc1Cc1ccc(-c2ccc(F)cc2)s1.O [Canagliflozin (hemihydrate)]
Cholesterol-free media + simvastatin (0.04 μM) [1, 22]: 1.34
Complete Media [1, 23]: 0.8924
Difference [1, 24]: −0.45
Difference [2, 25]: −0.51
Cholesterol-free [2, 7]: 1.347
Complete [2, 8]: 0.8359
